# Laboratory results from ChEMBL document CHEMBL4840348, “Total Syntheses and Anti-inflammatory Activities of Syringin and Its Natural Analogues” (J Nat Prod, 2021).
# Legend:
# [1] = tested on: RAW264.7; experiment: Cytotoxicity against mouse RAW264.7 cells assessed as reduction in cell viability at 100 uM measured after 24 hrs by MTT assay; format: cell-based; details: raw264.7, 24 h
# [2] = tested on: RAW264.7; experiment: Antiinflammatory activity in mouse RAW264.7 cells assessed as inhibition of LPS-induced NO production pretreated with compound for 2 hrs followed by LPS stimulation measured after 18 hrs by gGriess reagent based assay; format: functional, cell-based
Structure (SMILES),Activity [1],IC50 [2] [µM]
CCOC/C=C/c1cc(OC)c(O[C@@H]2O[C@H](CO)[C@@H](O)[C@H](O)[C@H]2O)c(OC)c1,Non-Toxic,> 100
COc1cc(/C=C/C=O)cc(OC)c1O[C@@H]1O[C@H](CO)[C@@H](O)[C@H](O)[C@H]1O [SINAPALDEHYDE GLUCOSIDE],Non-Toxic,> 100
COc1cc([C@@H](O)[C@@H](O)CO)cc(OC)c1O[C@@H]1O[C@H](CO)[C@@H](O)[C@H](O)[C@H]1O,Non-Toxic,15.4
COc1cc(/C=C/CO)cc(OC)c1O[C@@H]1O[C@H](CO)[C@@H](O)[C@H](O)[C@H]1O [SYRINGIN],Non-Toxic,17.2
COc1cc(/C=C/C(=O)O)cc(OC)c1O[C@@H]1O[C@H](CO)[C@@H](O)[C@H](O)[C@H]1O,Non-Toxic,18.7
COC/C=C/c1cc(OC)c(O[C@@H]2O[C@H](CO)[C@@H](O)[C@H](O)[C@H]2O)c(OC)c1,Non-Toxic,14.6
COc1cc(CCCO)cc(OC)c1O[C@@H]1O[C@H](CO)[C@@H](O)[C@H](O)[C@H]1O [DIHYDROSYRINGIN],Non-Toxic,> 100
COC(=O)/C=C/c1cc(OC)c(O[C@@H]2O[C@H](CO)[C@@H](O)[C@H](O)[C@H]2O)c(OC)c1,Non-Toxic,20.4
Cc1ccc(-c2cc(C(F)(F)F)nn2-c2ccc(S(N)(=O)=O)cc2)cc1 [CELECOXIB],,2.3
COc1cc([C@H](O)[C@H](O)CO)cc(OC)c1O[C@@H]1O[C@H](CO)[C@@H](O)[C@H](O)[C@H]1O,Non-Toxic,25.1
CCCCOC/C=C/c1cc(OC)c(O[C@@H]2O[C@H](CO)[C@@H](O)[C@H](O)[C@H]2O)c(OC)c1,Non-Toxic,> 100
COc1cc(/C=C/CO[C@@H]2O[C@H](CO)[C@@H](O)[C@H](O)[C@H]2O)cc(OC)c1O[C@@H]1O[C@H](CO)[C@@H](O)[C@H](O)[C@H]1O,Non-Toxic,16.6
COc1cc(/C=C/COC/C=C/c2cc(OC)c(O[C@@H]3O[C@H](CO)[C@@H](O)[C@H](O)[C@H]3O)c(OC)c2)cc(OC)c1O[C@@H]1O[C@H](CO)[C@@H](O)[C@H](O)[C@H]1O,Non-Toxic,> 100
